From publication PMC6930469, “Tetrandrine Interaction with ABCB1 Reverses Multidrug Resistance in Cancer Cells Through Competition with Anti-Cancer Drugs Followed by Downregulation of ABCB1 Expression” (Molecules, 2019)

Target: ABCB1 (P-glycoprotein) (Homo sapiens, UniProt P08183)
Test: Vanadate-sensitive ABCB1 ATPase stimulation in cell membranes (PREDEASY kit); also [3H]-paclitaxel accumulation/efflux in KB-C2 cells
Type: biochemical

Chain of ABCB1 (P-glycoprotein) (P08183 whole entry): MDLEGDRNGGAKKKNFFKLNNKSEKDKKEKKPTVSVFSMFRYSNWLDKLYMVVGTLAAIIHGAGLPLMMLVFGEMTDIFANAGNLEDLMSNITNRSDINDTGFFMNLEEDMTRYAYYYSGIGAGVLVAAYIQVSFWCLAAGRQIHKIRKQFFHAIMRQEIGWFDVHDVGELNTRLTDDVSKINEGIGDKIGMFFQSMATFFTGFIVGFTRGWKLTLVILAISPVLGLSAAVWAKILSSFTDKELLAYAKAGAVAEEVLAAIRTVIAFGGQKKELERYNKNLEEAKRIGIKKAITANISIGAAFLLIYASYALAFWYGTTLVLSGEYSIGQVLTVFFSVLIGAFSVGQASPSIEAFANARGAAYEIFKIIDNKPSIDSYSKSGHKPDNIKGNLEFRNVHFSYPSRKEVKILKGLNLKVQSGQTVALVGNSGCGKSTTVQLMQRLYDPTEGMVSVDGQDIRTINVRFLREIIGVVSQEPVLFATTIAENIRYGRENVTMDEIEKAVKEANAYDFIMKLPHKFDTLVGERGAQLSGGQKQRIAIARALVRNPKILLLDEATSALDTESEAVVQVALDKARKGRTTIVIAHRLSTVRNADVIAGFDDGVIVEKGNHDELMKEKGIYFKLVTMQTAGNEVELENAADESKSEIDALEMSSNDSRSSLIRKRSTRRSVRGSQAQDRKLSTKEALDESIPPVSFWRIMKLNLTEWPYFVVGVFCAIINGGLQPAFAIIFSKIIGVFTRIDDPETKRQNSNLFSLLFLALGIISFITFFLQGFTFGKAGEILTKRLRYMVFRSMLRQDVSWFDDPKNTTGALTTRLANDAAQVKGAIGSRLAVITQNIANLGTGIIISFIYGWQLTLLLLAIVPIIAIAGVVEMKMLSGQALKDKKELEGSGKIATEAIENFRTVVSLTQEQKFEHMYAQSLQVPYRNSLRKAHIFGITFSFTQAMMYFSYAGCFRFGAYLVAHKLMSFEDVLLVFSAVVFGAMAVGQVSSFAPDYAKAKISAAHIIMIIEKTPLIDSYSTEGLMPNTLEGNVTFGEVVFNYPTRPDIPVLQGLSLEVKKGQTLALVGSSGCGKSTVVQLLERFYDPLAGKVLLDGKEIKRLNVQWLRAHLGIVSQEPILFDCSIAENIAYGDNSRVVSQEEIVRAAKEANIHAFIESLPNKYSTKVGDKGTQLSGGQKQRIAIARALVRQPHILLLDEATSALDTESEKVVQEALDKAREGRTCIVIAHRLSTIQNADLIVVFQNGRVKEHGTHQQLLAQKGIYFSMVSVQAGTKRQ

Question: Which EC50 does the source give for `COc1ccc2cc1Oc1ccc(cc1)C[C@H]1c3cc(c(OC)cc3CCN1C)Oc1c(OC)c(OC)cc3c1[C@H](C2)N(C)CC3` [tetrandrine] here?
Answer: 470 nM
